Where no end group is shown, it is not given here. [ ]: non-standard residue; d: D form. Orn = NCCC[C@H](N)C(=O)O
Experiments:
P. gingivalis = assay: Release of antibiotics from self-assembling peptide gels, bacterial growth by turbidity OD600; format: cell-based; settings: antibiotic 150 mg/ml in SAP gels 15 mg/ml (P11-4, P11-13/14, P11-28/29); OD600 normalized to gel without antibiotic; over 120 hours
Experimental: (§1) FIG. 1: Bacterial density after release of antibiotics (150 mg/ml) from self-assembling peptide gels (15 mg/ml), and the impact thereof to the growth of P. gingivalis (A-C) and S. sanguinis (D-F). Circles: metronidazol, stars: tetracycline, triangle: ciprofloxacin, squares: doxycycline hyclate; control: gel without API
(§2) Hydrogels comprising self-assembling peptides with (150 mg/ml) and without antibiotics were formed by dissolving the respective peptides at a concentration of 15 mg/ml or equimolar for combination SAP in a concentration of −10 mg*ml-1 as follows:
(§3) For the gels formed by peptides P11-13 and P11-14: or for P11-28 and P11-29, equimolar solutions of peptides were prepared in a well plate, and pH corrected to physiological conditions, resulting in a gel.
(§4) Furthermore 100 uL/well of a defined anaerobic P. gingivalis or aerobic S. anguines bacterial culture (10^7 CFU/ml e.g. 990 μl BHI medium, 10 μl 10^8 CFU/ml bacteria suspension) were added onto the gels. Impact on growth was assessed by measuring turbidity at OD600 nm. Data obtained with antibiotics were normalized to control (gel+bacteria+medium without antibiotics) to analyse the relative bacterial density. 50 μl/well of medium were added every second day.

S. sanguinis = assay: as above; format: cell-based; settings: antibiotic 150 mg/ml in SAP gels 15 mg/ml (P11-4, P11-13/14, P11-28/29); OD600 normalized to gel without antibiotic; over 120 hours
Experimental: as §1, §2, §3, §4

[1] = system: periodontal ligament fibroblasts (PDLF); assay: In vitro periodontal pocket model, migration of PDLF out of donor compartment; format: cell-based, human; settings: P11-4 20 mg/ml, all others 15 mg/ml
Experimental: FIG. 6: Cell migration of a 15 mg/ml P11-4 gel on a periodontal ligament model after 8 days of incubation. Human Periodontal Ligament cells were placed in a cell pool (A) and the SAP gel (C) placed on the human dentin (B). The cell/SAP-gel/dentin was then incubated for 8 days and visually assessed resulting in migration of up to 5 mm. Scale bar: 1 mm
An in vitro model of a periodontal pocket (Meyer et al., 2016) was used to assess the migration distance of periodontal ligament fibroblasts (PDLF) out of the donor compartment. In brief, to determine early processes of tissue healing, three endpoints were investigated: Adhesion, proliferation and migration of human primary periodontal ligament fibroblasts (PDLF, ScienCell). In order to mimic the in vivo conditions as close as possible, pure bovine dentin surface served as underlying structure. Adhesion and proliferation of PDLF was assessed in a time dependent manner using ATP viability Kit (Promega). Visualization of the cells on the matrix was realized by SEM. For evaluation of cell adhesion and proliferation, Emdogain® (Straumann) was used as a positive control, as it has already proven its efficacy to promote periodontal regeneration in vivo. […]
PDLF cells were allowed to migrate in different SAP or collagen hydrogels (P11-4: 20 mg/ml; all others 15 mg/ml), as explained in Example L. Migration distances were analyzed after 4 and 8 days. […]

PDLF cells = assay: Stability of SAP matrices in contact with PDLF cells or medium (peptide in supernatant, UV-spectroscopy); format: cell-based; settings: 20 mg/ml P11-4, 15 mg/ml others; 2000 PDLF cells/well or medium; 24 h
Experimental: Different SAP hydrogels or matrices (20 mg/ml for P11-4; 15 mg/ml for […]) were contacted with 2000 PDLF cells/well or medium. Degradation was measured after 24 h by detection of peptide concentration in the supernatant by UV-spectroscopy. No significant effect of the cells was seen.

[2] = Mechanical properties (G′) of SAP gels in different ions and buffer systems; format: physicochemical
Experimental: FIG. 5: Mechanical properties are dependent on the presence of different ions and buffer systems. […] Since NO3− are monovalent ions, and ionic strength of the solution was below 130 mM, P11-8 self-assembling was slowed down. On the other hand self-assembling kinetic of P11-8 with DMEM and NaCl solution is very similar.

[3] = system: SAOS-2 cells (Sarcoma osteogenic); assay: Cell viability on SAP hydrogels compared to Emdogain (PrestoBlue); format: cell-based
Experimental: (§5) Left column 15 mg/ml SAP, middle column: 20 mg/ml SAP, right column 30 mg/ml SAP for each SAP, for Emdogain®, the concentration is constant at 30 mg/ml, and the three columns show 24, 48 and 96 h administration. […] Collagen (1.5 mg/ml) was used as a test system control. Cell proliferation was measured by the metabolic conversion of PrestoBlue viability reagent. Data were normalized in respect to values measured at day 1.
(§6) Proliferation of hPDLF (periodontal ligament fibroblasts) and SAOS-2 (Sarcoma osteogenic) cells on self-assembling peptides (P11-4, P11-8, P11-13 and P11-14, 15 mg/ml SAP, 20 mg/ml SAP, 30 mg/ml SAP respectively) was compared to the current gold standard Emdogain® and/or collagen after 24, 48 and 96 h. For Emdogain®, the concentration is constant at 30 mg/ml. Viability was measured by PrestoBlue® Cell Viability Reagent A13261.

[4] = system: hPDLF cells (human periodontal ligament fibroblasts); assay: as above; format: cell-based; settings: all concentrations tested (15, 20, 30 mg/ml SAP); 24, 48, 96 h; Emdogain 30 mg/ml
Experimental: as §5, §6

[5] = Self-assembly at neutral pH, visual appearance; format: physicochemical; settings: 1 part RADA16 solution (1 wt % in water) added to 1 part DMEM, neutral pH 7

For `Cc1ncc([N+](=O)[O-])n1CCO` [metronidazole], the “impact of antibiotic released from SAP gel on bacterial growth (relative bacterial density)” value (P. gingivalis) was “low effectivity in most systems at this concentration” and the “impact of antibiotic released from SAP gel on bacterial growth (relative bacterial density)” value (S. sanguinis) was “low effectivity in most systems at this concentration”.

In the case of “QQRFOWOFEQQ (QQRF[Orn]W[Orn]FEQQ) [P11-8, self-assembling peptide]”, the “homogenous migration of PDLF cells, visually” value [1] is reported as “most obvious”, the “migration distance of PDLF cells compared to collagen” value ([1]; after 4 days) is reported as “slightly increased compared to collagen” and the “degradation (peptide concentration in the supernatant)” value (PDLF cells) is reported as “degraded slightly more than the other SAP”. The “storage modulus G′ / self-assembling kinetic of gel” value ([2]; DMEM pH 7.4 versus Tris-NaCl) was “very similar”, the “storage modulus G′ of gel” value ([2]; artificial saliva (Tris 120 mM, Ca(NO3) 4 mM, KH2PO4 2.4 mM, pH 7.2) versus Tris-NaCl, DMEM, Tris MgSO4) was “lowest storage modulus was achieved with artificial saliva” and the “cell viability compared to Emdogain” value ([3]; 30 mg/ml SAP) was “strongly increased”. For the same molecule, the “cell viability compared to Emdogain” value ([3]; the other concentrations (15, 20 mg/ml SAP)) was “slightly increased or about equal” and the “cell viability compared to Emdogain” value [4] was “increased cell viability of hPDLF cells compared to Emdogain®”.

With RADA16 the self-assembly [5] was “No self-assembling is visible”.

— patent publication US12280087B2, “Composition comprising self-assembling peptides for use in treatment of gingivitis, periodontitis and/or peri-implantitis” (Credentis AG, priority 2016, dated 2025)
